Results reported in the NIST ThermoML archive (doi:10.1016/j.jct.2018.12.006).

Settings: 101.33 kPa, Crystal; for molar entropy: Small (less than 1 g) adiabatic calorimetry; for mass density: X-ray diffraction

C[N+](C)(C)C[C@H](O)CC(=O)[O-] [(R)-3-hydroxy-4-(trimethylammonio)butanoate]
Settings	mass density [kg/m3]	molar entropy [J/K/mol]
5 K	–	0.0967
10 K	–	0.77
15 K	–	2.46
20 K	–	5.34
25 K	–	8.973
30 K	–	13
35 K	–	17.28
40 K	–	21.73
45 K	–	26.33
50 K	–	31.04
60 K	–	40.65
70 K	–	50.3
80 K	–	59.86
90 K	–	69.27
100 K	–	78.52
110 K	–	87.63
120 K	–	96.63
130 K	–	105.5
140 K	–	114.3
150 K	1256	122.9
160 K	–	131.4
170 K	–	139.9
175 K	1250	–
180 K	–	148.2
190 K	–	156.4
200 K	1253	164.5
210 K	–	172.5
220 K	–	180.3
225 K	1247	–
230 K	–	188.1
240 K	–	195.9
250 K	1247	203.6
260 K	–	211.2
270 K	–	218.8
273.15 K	–	221.2
275 K	1250	–
280 K	–	226.4
290 K	–	233.9
298.15 K	–	240.1
300 K	1245	241.5
310 K	–	249
320 K	–	256.5
325 K	1236	–
330 K	–	264
340 K	–	271.5
350 K	1239	279
375 K	1242	–
400 K	1236	–
425 K	1236	–
